# Patent EP0374249A1, “METHOD OF STERILIZING PLANT POLLEN” (VSESOJUZNY NAUCHNO-ISSLEDOVATELSKY INST. SELSKOKHOZYAISTV. …, priority 1988, dated 1989)
# Legend:
# [1] = system: Sommerweizens Sorte Botanicheskaya 4; assay: Field test of pollen sterilisation, spring wheat Botanicheskaya 4; assay type: in vivo, Sommerweizen; settings: 1% aqueous emulsion, 6 kg/ha; for Prozentsatz der Sterilität / Anzahl von Körnern der Ähre bei freier Bestäubung / Anzahl von Körnern der Ähre im Isolator: period V of organogenesis; for Anzahl von Körnern der Ähre bei freier Bestäubung: free pollination; for Anzahl von Körnern der Ähre im Isolator: isolated ears; for Prozentsatz des Ansetzens von Körnern bei freier Bestäubung: period V, non-isolated control ears = 100%
# Description: Pflanzen des Sommerweizens Sorte Botanicheskaya 4 werden in der V. Periode der Organogenese (nach Kupermann) mit einer 1%igen Wässrigen Emulsion von N-(2-Dimethyl-aminoäthyl)-maleaminsäure, N-(3-Dimethylaminopropyl)-maleaminsäure, N-Äthylmaleaminsäure, N-(2-Hydroxyäthyl)-maleaminsäure bzw. N-Karbamoylmaleaminsäure behandelt. Die Emulsion enthält 0,5 Masse% Kalziumalkylbenzolsulfonat mit 12 bis 14 Kohlenstoffatomen und 0,01 Masse% Dimethylsulfoxid als Adjuvans. Der Verbrauch an Präparat beträgt 6 kg/ha. Als Kontrolle dienen Pflanzen, behandelt mit einem Verdünner ohne Sterilisationsmittel.
# [2] = system: tetraploidem Roggen Sorte Belta; assay: Field test of pollen sterilisation, tetraploid rye Belta; assay type: in vivo; settings: 1% aqueous emulsion, 10 kg/ha; for Prozentsatz der Sterilität / Anzahl von Körnern der Ähre bei freier Bestäubung / Anzahl von Körnern der Ähre im Isolator: period V of organogenesis; for Anzahl von Körnern der Ähre bei freier Bestäubung: free pollination; for Anzahl von Körnern der Ähre im Isolator: isolated ears; for Prozentsatz des Ansetzens von Körnern bei freier Bestäubung: period V, non-isolated control ears = 100%
# Description: (§1) Die gametozide Aktivität der erfindungsgemässen Sterilisationsmittel war im Feldversuch in verschiedenen Bodenklimatischen Zonen mit Teilstücken von 10 m^2 Grösse in drei- bis viermaliger Wiederholung nachgewiesen. Jedes Sterilisationsmittel wurde mindestens 5 Jahre lang geprüft.
# (§2) Die Entwicklung der Perioden der Organogenese wird zytologischüberwacht. Die Behandlung von Pflanzen mit dem Sterilisationsmittel erfolgt am Anfang der fünften Periode der Organogenese nach Kupermann.
# (§3) Mit dem Ahrenschiebe verwirklicht man die Isolierung von Hauptähren und anderen Stockwerken in Pergamentbeuteln. Bei Weizen und Tritikale werden Einzelisolatoren verwendet. Bei Roggen schliesst man je Ähre 5 bis 7 verschiedene nebeneinander befindliche Pflanzen unter einen gemeinsamen Isolator ein. Bei Hirse wird jede Rispe getrennt isoliert. Der Sterilitätsprozentsatz (X) für Weizen, Roggen, Tritikale und Hirse wird nach folgender Formel [formula] ermittelt.
# (§4) Die Kornzahl in nicht isolierten ähren von Kontrollpflanzen wird bedingt für 100% Ansetzen bei freier Bestäubung angenommen.
# (§5) Um zuverlässige Angaben zu erhalten, verwendet man 20 bis 25 Isolatoren jeder Wiederholung für Weisen und Tritikale, 10 bis 15 Gruppenisolatoren jeder Wiederholung für Roggen und Hirse.
# Pflanzen von tetraploidem Roggen Sorte Belta werden in der V. Periode der Organogenese (nach Kupermann) mit einer 1%igen wässrigen Emulsion von N-(2-Dimethylamino- .äthyl)maleaminsäure, N-(3-Dimethylaminopropyl)maleaminsäure, N-Äthylmaleaminsäure, N-(2-Hydroxyäthyl)maleaminsäure bzw. Karbamoylmaleaminsäure behandelt. Die Emulsion enthält 0,5 Masse% Kalziumalkylbenzolsulfonat mit 12 bis 14 Kohlenstoffatomen und 0,01 Masso% Tetrahydrofuran. Der Verbrauch an Präparat beträgt 10 kg/ha. Die Prüfergebnisse sind in der Tabelle 5 dargestellt. […] Periode der Organogenese erhalten.
# [3] = system: diploidem Roggen Sorte Chulpan; assay: Field test of pollen sterilisation, diploid rye Chulpan; assay type: in vivo; settings: 1% aqueous emulsion, 8 kg/ha; for Prozentsatz der Sterilität / Anzahl von Körnern der Ähre bei freier Bestäubung / Anzahl von Körnern der Ähre im Isolator: period V of organogenesis; for Anzahl von Körnern der Ähre bei freier Bestäubung: free pollination; for Anzahl von Körnern der Ähre im Isolator: isolated ears; for Prozentsatz des Ansetzens von Körnern bei freier Bestäubung: period V, non-isolated control ears = 100%
# Description: (§6) Mit dem Ahrenschiebe verwirklicht man die Isolierung von Hauptähren und anderen Stockwerken in Pergamentbeuteln. […] Bei Roggen schliesst man je Ähre 5 bis 7 verschiedene nebeneinander befindliche Pflanzen unter einen gemeinsamen Isolator ein. […] Der Sterilitätsprozentsatz (X) für Weizen, Roggen, Tritikale und Hirse wird nach folgender Formel [formula] ermittelt.
# Die Emulsion enthält 0,01 Masse% Tetranydrofuran und 0,1 Masse% Kalziumalkylbenzolsulfonat mit 12 bis 14 Kohlenstoffatomen. Der Verbrauch an Präparat beträgt 8 kg/ha. Als Kontrolle dienen Pflanzen, behandelt mit einem Verdünner ohne Sterilisationsmittel.
# [4] = system: tetraploidem Roggen Sorte Ukrainskaya tetra; assay: Field test of pollen sterilisation, tetraploid rye Ukrainskaya tetra; assay type: in vivo; settings: 1% aqueous emulsion, 6 kg/ha
# Description: Jedes Sterilisationsmittel wurde mindestens 5 Jahre lang geprüft.
# as §2, §3, §4, §5
# Pflanzen von tetraploidem Roggen Sorte Ukrainskaya tetra werden in der V. Periode der Organogenese (nach Kupermann) mit einer 1%igen wässrigen Emulsion von N-(2-Dimethylaminoäthyl)maleaminsäure, N-(3-Dimethyl-aminopropu)maleaminsäure bzw. N-Karbamoylmaleaminsäure behandelt. Die Emulsion enthält 0,1 Masse% Kaliumalkylbenzolsulfonat mit 12 bis 14 Kohlenstoffatomen und 0,01 Masse% Dodezylsulfat. Der Verbrauch an Präparat beträgt 6 kg/ha. Als Kontrolle dienen Pflanzen, behandelt mit einem Verdünner ohne Sterilisationsmittel. Die Prüfergebnisse sind in der Tabelle 6 dargestellt.
# [5] = system: diploidem Roggen Sorte Voskhod 2; assay: Field test of pollen sterilisation, diploid rye Voskhod 2; assay type: in vivo; settings: 1% aqueous emulsion, 10 kg/ha; for Prozentsatz der Sterilität / Anzahl von Körnern der Ähre bei freier Bestäubung / Anzahl von Körnern der Ähre im Isolator: period V of organogenesis; for Anzahl von Körnern der Ähre bei freier Bestäubung: free pollination; for Anzahl von Körnern der Ähre im Isolator: isolated ears; for Prozentsatz des Ansetzens von Körnern bei freier Bestäubung: period V, non-isolated control ears = 100%
# Description: Die Emulsion enthält 0,1 Masse% Kalziumalkylbenzolsulfonat und 0,01 Masse% Dimethylformamid. Der Verbrauch an Präparat beträgt 10 kg/ha. Als Kontrolle dienen Pflanzen, behandelt mit einem Lösungsmittel ohne Sterilisationsmittel.
# [6] = system: Winterweizens Sorte Mir.onovskaya 808; assay: Field test of pollen sterilisation (gametocidal activity), winter wheat Mironovskaya 808; assay type: in vivo, Winterweizen; settings: 2% aqueous emulsion, 20 kg/ha; for Prozentsatz der Sterilität / Anzahl von Körnern der Ähre bei freier Bestäubung / Anzahl von Körnern der Ähre im Isolator: period V of organogenesis; for Anzahl von Körnern der Ähre bei freier Bestäubung: free pollination; for Anzahl von Körnern der Ähre im Isolator: isolated ears; for Prozentsatz des Ansetzens von Körnern bei freier Bestäubung: period V, non-isolated control ears = 100%
# Description: Als Emulgierungsmittel wird 0,1 Masse% Kalziumalkylbenzolsulfonat mit 12 bis 14 Kohlenstoffatomen hinzugefügt. Als Adjuvans fährt man in die Emulsion 0,01 Masse% Dimethylsulfoxid ein. Der Verbrauch an Präparat beträgt 20 kg/ha. Als Kontrolle dienen Pflanzen, behandelt mit einem Verdünner ohne Sterilisationsmittel.
# [7] = system: Hirse Sorte Mironovskoe 94; assay: Field test of pollen sterilisation, millet Mironovskoe 94; assay type: in vivo; settings: 1% aqueous emulsion, 8 kg/ha; for Prozentsatz der Sterilität / Anzahl von Körnern der Rispe bei freier Bestäubung / Anzahl von Körnern der Rispe im Isolator: period V of organogenesis; for Anzahl von Körnern der Rispe bei freier Bestäubung: free pollination; for Anzahl von Körnern der Rispe im Isolator: isolated panicles; for Prozentsatz des Ansetzens von Körnern bei freier Bestäubung: period V, non-isolated control = 100%
# Description: as §1, §2, §3, §4, §5
# Pflanzen der Hirse Sorte Mironovskoe 94 werden in der V. Periode der Organogenese (nach Kupermann) mit einer 1%igen wässrigen Emulsion von N-(2-Dimethylaminoäthyl)maleaminsäure, N-(3-Dimethylaminopropyl)maleaminsäure, N-Äthylmaleaminsäure, N-(2-Hydroxyäthyl)maleaminsäure, N-Karbamoylmaleaminsäure behandelt. Die Emulsion enthält 0,01 Masse% Dimethylaulfoxid und 0,1 Masse% Kalziumalkylbenzolsulfonat mit 12 bis 14 Kohlenstoffatomen. Der Verbrauch an Präparat beträgt 8 kg/ha. Als Kontrolle dienen Pflanzen, behandelt mit einem Verdünner ohne Sterilisationsmittel. Die Prüfergebnisse sind in der Tabelle 12 dargestellt. […] Periode der Organogenese erhalten.
# [8] = Toxicity test in animals (LD50); settings: in vivo; animal test, per kg animal weight; species and route not given
# Description: Alle erfindungsgemässen N-substituierten Maleaminsäuren, welche als Sterilisationsmittel zur Verwendung kommen, waren auf die Toxizität im Tierversuch geprüft. Die Prüfergebnisse haben ergeben, dass die angegebenen Verbindungen von schwacher oder mittlerer Toxizität sind.
# [9] = system: diploidem Roggen Sorte Talovskaya 12; assay: Field test of pollen sterilisation, diploid rye Talovskaya 12; assay type: in vivo; settings: 1% aqueous emulsion, 6 kg/ha; for Prozentsatz der Sterilität / Anzahl von Körnern der Ähre bei freier Bestäubung / Anzahl von Körnern der Ähre im Isolator: period V of organogenesis; for Anzahl von Körnern der Ähre bei freier Bestäubung: free pollination; for Anzahl von Körnern der Ähre im Isolator: isolated ears; for Prozentsatz des Ansetzens von Körnern bei freier Bestäubung: period V, non-isolated control ears = 100%
# Description: as §6
# Pflanzen von diploidem Roggen Sorte Talovskaya 12 werden in der V. Periode der Organogenese (nach Kupermann) mit einer 1%igen wässrigen Emulsion von N-(2-Di- methylaminoäthyl)-maleaminsäure, N-(3-Dimethylaminopropyl)-maleaminsäure, N-Äthylmaleaminsäure, N-(2-Hydroxyäthyl)maleaminsäure, N-Karbamoylmaleaminsäure behandelt. Die Emulsion enthält 0,01 Masse% Dodezylsulfat und 0,1 Masse% Kalziumalkylbenzolsulfonat mit 12 bis _14 Kohlenstoffatomen. Der Verbrauch an Präparat beträgt 6 kg/ha. Als Kontrolle dienen Pflanzen, behandelt mit einem Verdünner ohne Sterilisationsmittel.
# [10] = system: Sommerweizens Sorte Moskovskaya 35; assay: Field test of pollen sterilisation, spring wheat Moskovskaya 35; assay type: in vivo, Sommerweizen; settings: 1% aqueous emulsion, 10 kg/ha; for Prozentsatz der Sterilität / Anzahl von Körnern der Ähre bei freier Bestäubung / Anzahl von Körnern der Ähre im Isolator: period V of organogenesis; for Anzahl von Körnern der Ähre bei freier Bestäubung: free pollination; for Anzahl von Körnern der Ähre im Isolator: isolated ears; for Prozentsatz des Ansetzens von Körnern bei freier Bestäubung: period V, non-isolated control ears = 100%
# Description: Pflanzen des Sommerweizens Sorte Moskovskaya 35 werden in V. Periode der Organogenese (nach Kupermann) mit einer 1%igen wässrigen Emulsion von N-(2-Dimethyl-aminoäthyl)-maleaminsäure, N-(3-Dimethylaminopropyl)-maleaminsäure, N-Äthylmaleaminsäure, N-(2-Hydroxyäthyl) maleaminsäure bzw. N-Karbamoylmaleaminsäure behandelt. Die Emulsion enthält 0,5 Masse% Kalziumalkylbenzolsulfonat mit 12 bis 14 Kohlenstoffatomen als Emulgierungsmittel und 0,01 Masse% Dimethylformamid als Adjuvans. Der Verbrauch an Präparat beträgt 10 kg/ha. Als Kontrolle dienen Pflanzen, behandelt mit einem Verdünner ohne Sterilisationsmittel.
# [11] = system: Winterweizens Sorte Bezostaya 1; assay: Field test of pollen sterilisation, winter wheat Bezostaya 1; assay type: in vivo, Winterweizen; settings: 2% aqueous emulsion, 16 kg/ha; for Prozentsatz der Sterilität / Anzahl von Körnern der Ähre bei freier Bestäubung / Anzahl von Körnern der Ähre im Isolator: period V of organogenesis; for Anzahl von Körnern der Ähre bei freier Bestäubung: free pollination; for Anzahl von Körnern der Ähre im Isolator: isolated ears; for Prozentsatz des Ansetzens von Körnern bei breier Bestäubung: period V, non-isolated control ears = 100%
# Description: Pflanzen des Winterweizens Sorte Bezostaya 1 werden in der V. Periode der Organogenese durch Zerstäubung einer 2%igen wässrigen Emulsion von N-(2-Dimethylaminoäthyl)-maleaminsäure, N-(3-Dimethylaminopropyl)-maleaminsäure, N-Äthylmaleaminsäure, N-(2-Hydroxyäthyl)-maleaminsäure, N-Karbamoylmaleaminsäure mit Hilfe deiner Rückspritze behandelt. Die Emulsion enthält 0,1 Masse% Kalziumalkylbenzolsulfonat mit 12 bis 14 Kohlenstoffatomen. Als Adjuvans führt man in die Emulsion 0,01 Masse% Tetrahydrofuran ein.
# Der Verbrauch an Präparat beträgt 16 kg/ha. Als Kontrolle dienen Pflanzen, behandelt mit einem Verdünner ohne Sterilisationsmitteln.
smiles,measurement,setting,value
"CN(C)CCNC(=O)/C=C\C(=O)O [Beispiel 1, N-(2-Dimethylaminoäthyl)-maleaminsäure]",Prozentsatz der Sterilität,[1],"97,5%"
same,Anzahl von Körnern der Ähre bei freier Bestäubung,[1],"29,8"
same,Anzahl von Körnern der Ähre im Isolator,[1],"0,7"
same,Prozentsatz des Ansetzens von Körnern bei freier Bestäubung,[1],"99,0%"
same,Prozentsatz der Sterilität,[2],"100,0%"
same,Anzahl von Körnern der Ähre bei freier Bestäubung,[2],"48,2"
same,Anzahl von Körnern der Ähre im Isolator,[2],"0,0"
same,Prozentsatz des Ansetzens von Körnern bei freier Bestäubung,[2],"88,2%"
same,Prozentsatz der Sterilität,[3],"99,6%"
same,Anzahl von Körnern der Ähre bei freier Bestäubung,[3],"50,2"
same,Anzahl von Körnern der Ähre im Isolator,[3],"0,2"
same,Prozentsatz des Ansetzens von Körnern bei freier Bestäubung,[3],"88,4%"
same,Prozentsatz der Sterilität,[4]; period V of organogenesis,"100,0%"
same,Anzahl von Körnern der Ähre bei freier Bestäubung,"[4]; period V of organogenesis, free pollination","40,1"
same,Anzahl von Körnern der Ähre im Isolator,"[4]; period V of organogenesis, isolated ears","0,0"
same,Prozentsatz des Ansetzens von Körnern bei freier Bestäubung,"[4]; period V, non-isolated control ears = 100%","89,5%"
same,Prozentsatz der Sterilität,[5],"100,0%"
same,Anzahl von Körnern der Ähre bei freier Bestäubung,[5],"51,2"
same,Anzahl von Körnern der Ähre im Isolator,[5],"0,0"
same,Prozentsatz des Ansetzens von Körnern bei freier Bestäubung,[5],"92,7%"
same,Prozentsatz der Sterilität,[6],"99,8%"
same,Anzahl von Körnern der Ähre bei freier Bestäubung,[6],"38,3"
same,Anzahl von Körnern der Ähre im Isolator,[6],"0,1"
same,Prozentsatz des Ansetzens von Körnern bei freier Bestäubung,[6],"89,9%"
same,Prozentsatz der Sterilität,[7],"100,0%"
same,Anzahl von Körnern der Rispe bei freier Bestäubung,[7],"224,8"
same,Anzahl von Körnern der Rispe im Isolator,[7],"0,0"
same,Prozentsatz des Ansetzens von Körnern bei freier Bestäubung,[7],"98,9%"
same,LD50,[8],2500 mg/kg
same,Prozentsatz der Sterilität,[9],"99,5%"
same,Anzahl von Körnern der Ähre bei freier Bestäubung,[9],"51,2"
same,Anzahl von Körnern der Ähre im Isolator,[9],"0,2"
same,Prozentsatz des Ansetzens von Körnern bei freier Bestäubung,[9],"91,1%"
same,Prozentsatz der Sterilität,[10],"99,3%"
same,Anzahl von Körnern der Ähre bei freier Bestäubung,[10],"26,8"
same,Anzahl von Körnern der Ähre im Isolator,[10],"0,2"
same,Prozentsatz des Ansetzens von Körnern bei freier Bestäubung,[10],"97,4%"
same,Prozentsatz der Sterilität,[11],"100,0%"
same,Anzahl von Körnern der Ähre bei freier Bestäubung,[11],"39,7"
same,Anzahl von Körnern der Ähre im Isolator,[11],"0,0"
same,Prozentsatz des Ansetzens von Körnern bei breier Bestäubung,[11],"92,5%"
"CCNC(=O)/C=C\C(=O)O [Beispiel 3, N-Äthylmaleaminsäure]",Prozentsatz der Sterilität,[1],"100,0%"
same,Anzahl von Körnern der Ähre bei freier Bestäubung,[1],"28,2"
same,Anzahl von Körnern der Ähre im Isolator,[1],"0,0"
same,Prozentsatz des Ansetzens von Körnern bei freier Bestäubung,[1],"93,7%"
same,Prozentsatz der Sterilität,[2],"99,4%"
same,Anzahl von Körnern der Ähre bei freier Bestäubung,[2],"52,3"
same,Anzahl von Körnern der Ähre im Isolator,[2],"0,3"
same,Prozentsatz des Ansetzens von Körnern bei freier Bestäubung,[2],"95,4%"
same,Prozentsatz der Sterilität,[3],"99,4%"
same,Anzahl von Körnern der Ähre bei freier Bestäubung,[3],"49,8"
same,Anzahl von Körnern der Ähre im Isolator,[3],"0,3"
same,Prozentsatz des Ansetzens von Körnern bei freier Bestäubung,[3],"87,7%"
same,Prozentsatz der Sterilität,[5],"100,0%"
same,Anzahl von Körnern der Ähre bei freier Bestäubung,[5],"53,0"
same,Anzahl von Körnern der Ähre im Isolator,[5],"0,0"
same,Prozentsatz des Ansetzens von Körnern bei freier Bestäubung,[5],"96,0%"
same,Prozentsatz der Sterilität,[6],"99,5%"
same,Anzahl von Körnern der Ähre bei freier Bestäubung,[6],"40,7"
same,Anzahl von Körnern der Ähre im Isolator,[6],"0,2"
same,Prozentsatz des Ansetzens von Körnern bei freier Bestäubung,[6],"95,5%"
same,Prozentsatz der Sterilität,[7],"100,0%"
same,Anzahl von Körnern der Rispe bei freier Bestäubung,[7],"200,8"
same,Anzahl von Körnern der Rispe im Isolator,[7],"0,0"
same,Prozentsatz des Ansetzens von Körnern bei freier Bestäubung,[7],"88,3%"
same,LD50,[8],2000 mg/kg
same,Prozentsatz der Sterilität,[9],"100,0%"
same,Anzahl von Körnern der Ähre bei freier Bestäubung,[9],"50,1"
same,Anzahl von Körnern der Ähre im Isolator,[9],"0,0"
same,Prozentsatz der Sterilität,[10],"98,5%"
same,Anzahl von Körnern der Ähre bei freier Bestäubung,[10],"26,7"
same,Anzahl von Körnern der Ähre im Isolator,[10],"0,4"
same,Prozentsatz des Ansetzens von Körnern bei freier Bestäubung,[10],"97,1%"
same,Prozentsatz der Sterilität,[11],"99,4%"
same,Anzahl von Körnern der Ähre bei freier Bestäubung,[11],"42,1"
same,Anzahl von Körnern der Ähre im Isolator,[11],"0,2"
same,Prozentsatz des Ansetzens von Körnern bei breier Bestäubung,[11],"98,1%"
"O=C(O)/C=C\C(=O)NCCO [Beispiel 4, N-(2-Hydroxyäthyl)-maleaminsäure]",Prozentsatz der Sterilität,[1],"100,0%"
same,Anzahl von Körnern der Ähre bei freier Bestäubung,[1],"28,7"
same,Anzahl von Körnern der Ähre im Isolator,[1],"0,0"
same,Prozentsatz des Ansetzens von Körnern bei freier Bestäubung,[1],"95,3%"
same,Prozentsatz der Sterilität,[2],"99,6%"
same,Anzahl von Körnern der Ähre bei freier Bestäubung,[2],"51,6"
same,Anzahl von Körnern der Ähre im Isolator,[2],"0,2"
same,Prozentsatz des Ansetzens von Körnern bei freier Bestäubung,[2],"94,2%"
same,Prozentsatz der Sterilität,[3],"99,8%"
same,Anzahl von Körnern der Ähre bei freier Bestäubung,[3],"50,1"
same,Anzahl von Körnern der Ähre im Isolator,[3],"0,1"
same,Prozentsatz des Ansetzens von Körnern bei freier Bestäubung,[3],"88,2%"
same,Prozentsatz der Sterilität,[5],"98,4%"
same,Anzahl von Körnern der Ähre bei freier Bestäubung,[5],"52,2"
same,Anzahl von Körnern der Ähre im Isolator,[5],"0,8"
same,Prozentsatz des Ansetzens von Körnern bei freier Bestäubung,[5],"94,6%"
same,Prozentsatz der Sterilität,[6],"99,3%"
same,Anzahl von Körnern der Ähre bei freier Bestäubung,[6],"39,8"
same,Anzahl von Körnern der Ähre im Isolator,[6],"0,3"
same,Prozentsatz des Ansetzens von Körnern bei freier Bestäubung,[6],"93,4%"
same,Prozentsatz der Sterilität,[7],"100,0%"
same,Anzahl von Körnern der Rispe bei freier Bestäubung,[7],"215,0"
same,Anzahl von Körnern der Rispe im Isolator,[7],"0,0"
same,Prozentsatz des Ansetzens von Körnern bei freier Bestäubung,[7],"94,6%"
same,LD50,[8],1500 mg/kg
same,Prozentsatz der Sterilität,[9],"99,3%"
same,Anzahl von Körnern der Ähre bei freier Bestäubung,[9],"53,2"
same,Anzahl von Körnern der Ähre im Isolator,[9],"0,3"
same,Prozentsatz des Ansetzens von Körnern bei freier Bestäubung,[9],"94,7%"
same,Prozentsatz der Sterilität,[10],"100,0%"
same,Anzahl von Körnern der Ähre bei freier Bestäubung,[10],"27,0"
same,Anzahl von Körnern der Ähre im Isolator,[10],"0,0"
same,Prozentsatz des Ansetzens von Körnern bei freier Bestäubung,[10],"98,2%"
same,Prozentsatz der Sterilität,[11],"100,0%"
same,Anzahl von Körnern der Ähre bei freier Bestäubung,[11],"37,1"
same,Anzahl von Körnern der Ähre im Isolator,[11],"0,0"
same,Prozentsatz des Ansetzens von Körnern bei breier Bestäubung,[11],"86,5%"
